Source: ChEMBL document CHEMBL1201862, “PubChem BioAssay data set” (2004)
Active and inactive are the calls of the source.

Legend:
[1] = target: T1, Carboxy-terminal domain RNA polymerase II polypeptide A small phosphatase 1 (Homo sapiens, UniProt Q9GZU7); assay: inhibitors of CTDSP1, concentration-response testing, biochemical assay, absorbance-based, actives from ultra-high-throughput screening (AID 540297); assay type: functional
T1 sequence (Q9GZU7 whole entry): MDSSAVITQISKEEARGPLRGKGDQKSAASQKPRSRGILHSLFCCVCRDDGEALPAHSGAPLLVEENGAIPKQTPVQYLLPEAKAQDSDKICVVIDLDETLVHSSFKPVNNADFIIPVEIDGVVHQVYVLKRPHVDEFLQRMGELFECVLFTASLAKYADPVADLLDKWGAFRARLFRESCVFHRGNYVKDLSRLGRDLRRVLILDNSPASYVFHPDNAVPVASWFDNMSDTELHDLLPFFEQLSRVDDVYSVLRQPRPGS

[2] = target: T2, High affinity choline transporter 1 (Homo sapiens, UniProt Q9GZV3); assay: CHT inhibitors, dose response, cell-based, 5-point CRC, membrane potential dye (AID 504840); assay type: functional
T2 sequence (Q9GZV3 whole entry): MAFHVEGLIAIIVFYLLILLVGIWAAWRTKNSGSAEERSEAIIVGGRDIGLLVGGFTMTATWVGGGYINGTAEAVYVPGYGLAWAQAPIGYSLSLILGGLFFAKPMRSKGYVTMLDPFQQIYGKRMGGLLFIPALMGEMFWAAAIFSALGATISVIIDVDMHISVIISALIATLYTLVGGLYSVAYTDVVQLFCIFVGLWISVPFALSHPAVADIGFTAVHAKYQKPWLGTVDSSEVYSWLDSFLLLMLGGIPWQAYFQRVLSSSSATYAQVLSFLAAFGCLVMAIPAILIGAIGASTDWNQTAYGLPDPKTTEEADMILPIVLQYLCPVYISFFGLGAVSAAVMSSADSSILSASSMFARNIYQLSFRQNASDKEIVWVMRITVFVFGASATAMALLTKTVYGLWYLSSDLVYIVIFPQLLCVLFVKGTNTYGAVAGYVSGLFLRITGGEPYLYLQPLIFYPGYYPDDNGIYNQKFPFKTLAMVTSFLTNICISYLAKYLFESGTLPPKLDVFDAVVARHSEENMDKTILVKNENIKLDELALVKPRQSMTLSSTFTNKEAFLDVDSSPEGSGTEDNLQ

[3] = target: T3, Polyadenylate-binding protein 1 (Homo sapiens, UniProt P11940); assay: PABP1 MLLE–PAM2 interaction inhibitors, dose response, miRNA deadenylation inhibitor project, biochemical, fluorescence polarization, Cy5-PAM2 peptide, secondary (AID 602260); assay type: functional; conditions: read-out: IC50_Mean
[4] = target: T3, Polyadenylate-binding protein 1; assay: PABP1 MLLE–PAM2 binding inhibitor potency, dose response, biochemical, fluorescence polarization, FITC-PAM2 peptide (AID 602259); assay type: functional; conditions: read-out: IC50_Mean
Genome polyprotein = Genome polyprotein (dengue virus type 2, UniProt P29990); assay: Dengue-2 NS5 methyltransferase inhibitors, primary screen, biochemical, confirmation dose response (AID 588689); assay type: functional
[5] = microbe, parasite or virus in culture; assay type: functional; conditions: Mycobacterium tuberculosis
[6] = Luminescence Cell-Based Dose Retest to Confirm Inhibitors of Cancer Stem Cells. [Related pubchem assays (depositor defined):AID2717, AID2721]; assay type: functional; conditions: Homo sapiens
Leucine aminopeptidase = target: T4, Leucine aminopeptidase (Plasmodium falciparum 3D7, UniProt Q8IL11); assay: P. falciparum M17LAP inhibitors, primary screen, biochemical, fluorogenic H-Leu-NHMec substrate, 1536-well (AID 1619); assay type: functional
T4 sequence (Q8IL11 whole entry): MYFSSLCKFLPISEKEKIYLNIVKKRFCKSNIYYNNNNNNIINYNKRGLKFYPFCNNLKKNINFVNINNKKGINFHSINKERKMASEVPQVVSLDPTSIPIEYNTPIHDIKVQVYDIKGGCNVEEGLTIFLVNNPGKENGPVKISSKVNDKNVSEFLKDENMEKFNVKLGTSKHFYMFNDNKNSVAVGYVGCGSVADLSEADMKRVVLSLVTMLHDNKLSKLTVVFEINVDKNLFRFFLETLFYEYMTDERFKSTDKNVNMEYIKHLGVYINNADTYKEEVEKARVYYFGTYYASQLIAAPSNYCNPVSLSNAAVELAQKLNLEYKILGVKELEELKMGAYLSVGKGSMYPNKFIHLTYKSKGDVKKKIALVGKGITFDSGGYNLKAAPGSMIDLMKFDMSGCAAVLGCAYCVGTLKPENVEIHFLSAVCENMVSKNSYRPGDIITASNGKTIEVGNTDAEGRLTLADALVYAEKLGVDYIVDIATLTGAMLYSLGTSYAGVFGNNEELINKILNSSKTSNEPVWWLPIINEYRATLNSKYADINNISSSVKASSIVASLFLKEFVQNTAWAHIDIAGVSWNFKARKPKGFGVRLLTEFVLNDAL

[7] = inhibitors of intracellular T. cruzi replication, confirmation, NIH3T3 host cells, beta-gal luminescence (AID 2044); assay type: functional, cell-based;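 also: intracellular parasites grown in NIH/3T3 mouse fibroblasts as host cells; luminescent beta-galactosidase reporter signal from transgenic T. cruzi replicating inside host cells; inhibitors lower the luminescence signal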
[8] = tested on: Streptococcus sp. 'group A'; assay: growth inhibition of control SK(-) GAS strain, dose response, counter-screen for streptokinase expression inhibitor project, luminescence, kanamycin, BacTiterGlo, confirmation (AID 1900); assay type: functional, organism-based
[9] = cytotoxicity toward NIH3T3 fibroblasts, dose response, counter-screen, cell-based, ATP luminescence, mouse fibroblasts (AID 2010); assay type: functional;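 also: cells exposed to compound for about 90 hours before reading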
Streptococcus = assay: Group A Streptococcus viability loss, dose response, counter-screen for streptokinase expression inhibitor project, luminescence, BacTiterGlo (AID 1915); assay type: functional, organism-based;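 also: potency for reduction of bacterial viability or growth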
Cytochrome P450 1A2 = target: T5, Cytochrome P450 1A2 (Homo sapiens, UniProt P05177);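 also: PubChem cytochrome P450 panel assay, CYP1A2 panel member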
T5 sequence (P05177 whole entry): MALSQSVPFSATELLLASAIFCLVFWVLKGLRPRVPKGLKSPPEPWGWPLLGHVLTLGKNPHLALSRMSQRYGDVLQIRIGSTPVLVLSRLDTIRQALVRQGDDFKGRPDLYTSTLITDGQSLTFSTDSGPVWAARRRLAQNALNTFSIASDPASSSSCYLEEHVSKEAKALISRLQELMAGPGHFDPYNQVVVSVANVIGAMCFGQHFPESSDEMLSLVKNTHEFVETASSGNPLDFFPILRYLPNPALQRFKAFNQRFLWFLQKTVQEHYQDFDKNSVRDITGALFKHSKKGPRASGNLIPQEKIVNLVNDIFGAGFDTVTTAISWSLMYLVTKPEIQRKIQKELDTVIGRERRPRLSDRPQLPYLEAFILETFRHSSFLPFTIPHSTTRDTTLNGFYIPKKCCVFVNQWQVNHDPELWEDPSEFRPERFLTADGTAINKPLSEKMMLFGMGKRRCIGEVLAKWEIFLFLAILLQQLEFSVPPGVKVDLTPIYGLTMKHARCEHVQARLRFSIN

Cytochrome P450 2C9 = Cytochrome P450 2C9 (Homo sapiens, UniProt P11712)
Paired box protein Pax-8 = Paired box protein Pax-8 (Homo sapiens, UniProt Q06710); assay: inhibitors of PAX8-driven TPO luciferase reporter, dose response, RMG-I cells, cherry-pick (AID 687027); assay type: functional, cell-based;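 also: luciferase reporter driven by Pax8 target thyroperoxidase promoter measured by SteadyGlo luminescence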
[10] = cytotoxicity in OVCAR8 ovarian cancer cells, dose response, PAX8 project, cell-based, plate reader, dry powder samples (AID 743197); assay type: functional; conditions: OVCAR-8
[11] = HEp-2 cell cytotoxicity, dose response, cytotoxicity control for RSV inhibitor project, HTS (AID 2410); assay type: functional; conditions: human respiratory syncytial virus
[12] = Shn3 3'UTR reporter inhibitors, dose response, cell-based, Clone20 osteoblasts, firefly luciferase, cherry-picked (AID 624132); assay type: functional;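 also: firefly luciferase luminescence from reporter carrying the Shn3 3'UTR in osteoblasts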
[13] = HepG2 cell cytotoxicity, dose response, cytotoxicity control for Shn3 inhibitor project, CellTiter-Glo, cherry-picked (AID 624134); assay type: functional, cell-based
INS1 = assay: beta cell apoptosis inhibitors, cytokine rescue, dose response, luminescence, retest (AID 449756); assay type: functional, cell-based; conditions: Rattus norvegicus;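 also: cell death triggered by IL-1 beta plus TNF-alpha plus IFN-gamma mixture; protective hits raise ATP signal compared with cytokine alone wells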
[14] = control 3'UTR Renilla luciferase suppression, dose response, counter-screen for Shn3 inhibitor project, cell-based, Clone20-Shn3RL, cherry-picked (AID 624133); assay type: functional
[15] = growth suppression of beta-catenin-knockout colon cells, dose response, cell-based, HCT116, human colon tumor (AID 1045); assay type: functional;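 also: HCT116 colon tumor cells with beta catenin knocked out; cells exposed to compound for 60 hours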
[16] = growth suppression of PTEN-null colon cells, dose response, cell-based, HCT116 PTEN knockout (AID 1047); assay type: functional;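 also: HCT116 colon tumor cells with PTEN knocked out; cells exposed to compound for 60 hours before readout; potency for loss of cell viability measured by luminescence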
HEK293 = assay: inhibitors of LMP1-driven NF-kB reporter, dose response, cell-based, HEK293, luciferase, cherry-pick (AID 588343); assay type: functional; conditions: Homo sapiens
H9c2 = assay: cells; assay type: functional, cell-based; conditions: Rattus norvegicus, H9c2, Myocardium;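 also: confirmatory concentration-response retest of ultra-high-throughput screening hits for modulation of myocardial damage; cell death induced by hydrogen peroxide oxidative stress; compound pretreatment for 60 min then peroxide exposure for 2 h; potency is for protecting the cells against peroxide damage rather than for killing them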
[17] = target: Glucose-6-phosphate 1-dehydrogenase (Homo sapiens, UniProt P11413); assay: human G6PD enzyme inhibitors, dose response, selectivity assay for P. falciparum G6PD inhibitor project, biochemical, fluorescence (AID 504792); assay type: functional
Glucose-6-phosphate 1-dehydrogenase, sequence (P11413 whole entry): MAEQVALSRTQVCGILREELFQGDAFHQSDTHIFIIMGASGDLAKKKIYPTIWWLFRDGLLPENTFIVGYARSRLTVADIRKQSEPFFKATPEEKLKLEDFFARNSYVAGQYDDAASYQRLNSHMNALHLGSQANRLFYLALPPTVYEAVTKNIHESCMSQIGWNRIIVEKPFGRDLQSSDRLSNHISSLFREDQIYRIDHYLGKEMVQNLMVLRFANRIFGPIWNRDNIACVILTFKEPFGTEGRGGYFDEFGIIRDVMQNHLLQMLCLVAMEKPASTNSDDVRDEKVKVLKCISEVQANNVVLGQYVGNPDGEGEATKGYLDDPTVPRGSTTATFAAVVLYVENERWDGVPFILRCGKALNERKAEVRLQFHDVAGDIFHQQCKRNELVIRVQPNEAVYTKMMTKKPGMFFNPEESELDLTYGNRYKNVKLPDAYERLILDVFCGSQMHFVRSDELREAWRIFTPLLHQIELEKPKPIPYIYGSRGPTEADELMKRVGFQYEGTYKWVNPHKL

Genome polyprotein, sequence (P29990 2492-3391 limits assumed): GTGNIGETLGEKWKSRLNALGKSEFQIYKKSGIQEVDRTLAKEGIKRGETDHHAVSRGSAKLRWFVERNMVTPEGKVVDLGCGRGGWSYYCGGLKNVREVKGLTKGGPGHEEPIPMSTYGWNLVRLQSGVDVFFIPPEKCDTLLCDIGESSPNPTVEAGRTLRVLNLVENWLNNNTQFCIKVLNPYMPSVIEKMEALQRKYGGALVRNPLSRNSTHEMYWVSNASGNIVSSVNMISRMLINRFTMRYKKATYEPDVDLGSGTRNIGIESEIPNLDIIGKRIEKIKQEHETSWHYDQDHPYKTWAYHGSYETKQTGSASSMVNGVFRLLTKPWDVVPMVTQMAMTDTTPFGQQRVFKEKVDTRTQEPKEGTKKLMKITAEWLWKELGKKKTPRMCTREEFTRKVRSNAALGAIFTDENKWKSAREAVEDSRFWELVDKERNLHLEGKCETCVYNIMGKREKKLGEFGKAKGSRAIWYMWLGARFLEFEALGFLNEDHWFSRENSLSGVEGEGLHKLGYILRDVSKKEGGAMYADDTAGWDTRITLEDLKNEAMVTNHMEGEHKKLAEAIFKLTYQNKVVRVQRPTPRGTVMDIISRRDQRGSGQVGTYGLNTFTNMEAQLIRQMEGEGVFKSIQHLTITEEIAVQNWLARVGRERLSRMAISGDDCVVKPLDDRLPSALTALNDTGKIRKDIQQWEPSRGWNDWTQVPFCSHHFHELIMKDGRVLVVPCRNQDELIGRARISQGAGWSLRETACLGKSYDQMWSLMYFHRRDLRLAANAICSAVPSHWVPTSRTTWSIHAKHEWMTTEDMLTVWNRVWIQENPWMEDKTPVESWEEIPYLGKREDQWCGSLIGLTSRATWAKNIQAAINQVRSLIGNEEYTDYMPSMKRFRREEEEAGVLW
T3 sequence (P11940 whole entry): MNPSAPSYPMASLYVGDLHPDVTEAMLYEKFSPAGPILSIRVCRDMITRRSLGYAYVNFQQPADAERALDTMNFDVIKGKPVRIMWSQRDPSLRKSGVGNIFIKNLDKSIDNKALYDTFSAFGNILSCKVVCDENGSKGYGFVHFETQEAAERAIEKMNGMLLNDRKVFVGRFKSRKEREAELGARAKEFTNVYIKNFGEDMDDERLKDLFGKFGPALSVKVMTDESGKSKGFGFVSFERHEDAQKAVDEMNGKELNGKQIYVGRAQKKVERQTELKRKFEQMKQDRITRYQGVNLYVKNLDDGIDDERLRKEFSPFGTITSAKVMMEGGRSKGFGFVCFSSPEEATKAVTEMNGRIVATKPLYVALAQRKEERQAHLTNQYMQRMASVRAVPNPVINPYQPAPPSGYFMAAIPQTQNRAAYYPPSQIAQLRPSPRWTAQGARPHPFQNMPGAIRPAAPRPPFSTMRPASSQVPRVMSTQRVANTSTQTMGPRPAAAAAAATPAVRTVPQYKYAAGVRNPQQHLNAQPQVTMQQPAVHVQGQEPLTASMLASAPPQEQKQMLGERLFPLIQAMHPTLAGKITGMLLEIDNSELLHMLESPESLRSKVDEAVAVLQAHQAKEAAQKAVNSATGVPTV
Cytochrome P450 2C9, sequence (P11712 whole entry): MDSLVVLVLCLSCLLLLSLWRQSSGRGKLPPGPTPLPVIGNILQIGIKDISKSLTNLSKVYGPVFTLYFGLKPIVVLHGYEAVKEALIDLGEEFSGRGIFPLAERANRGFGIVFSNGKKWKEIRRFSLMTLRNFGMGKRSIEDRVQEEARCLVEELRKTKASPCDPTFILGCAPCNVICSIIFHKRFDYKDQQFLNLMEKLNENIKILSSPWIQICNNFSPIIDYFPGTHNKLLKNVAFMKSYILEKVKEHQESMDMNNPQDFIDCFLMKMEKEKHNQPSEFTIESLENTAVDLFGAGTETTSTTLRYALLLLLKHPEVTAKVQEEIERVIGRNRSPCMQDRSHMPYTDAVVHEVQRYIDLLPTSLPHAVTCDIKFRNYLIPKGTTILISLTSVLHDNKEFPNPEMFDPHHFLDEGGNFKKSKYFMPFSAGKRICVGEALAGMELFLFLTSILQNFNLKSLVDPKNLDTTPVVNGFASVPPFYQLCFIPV
Paired box protein Pax-8, sequence (Q06710 whole entry): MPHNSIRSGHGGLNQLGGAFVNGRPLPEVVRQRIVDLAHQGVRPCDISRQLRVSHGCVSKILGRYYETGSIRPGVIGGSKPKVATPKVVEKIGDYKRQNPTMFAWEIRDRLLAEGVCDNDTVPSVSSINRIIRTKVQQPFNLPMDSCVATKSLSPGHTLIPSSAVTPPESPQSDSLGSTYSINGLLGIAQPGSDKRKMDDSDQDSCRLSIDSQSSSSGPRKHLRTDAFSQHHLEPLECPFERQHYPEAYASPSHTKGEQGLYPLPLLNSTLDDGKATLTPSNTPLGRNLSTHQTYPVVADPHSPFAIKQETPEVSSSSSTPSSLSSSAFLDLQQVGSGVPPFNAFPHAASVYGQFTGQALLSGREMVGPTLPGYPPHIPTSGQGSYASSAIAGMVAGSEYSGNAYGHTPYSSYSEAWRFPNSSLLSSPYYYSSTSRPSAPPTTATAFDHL

SMILES: O=C(O)c1cccc2c1/C(=N/Nc1ccc([N+](=O)[O-])cc1[N+](=O)[O-])c1ccccc1-2
- IC50 [1]: 30.7 µM (active)
- IC50 [2]: 15.2 µM (active)

SMILES: Oc1cc(CNC2CCCCC2)c(O)cc1CNC1CCCCC1
- IC50 [3]: > 66 µM (inactive)
- IC50 [4]: 47.7 µM (inactive)
- IC50 (Genome polyprotein): 27.4 µM (active)

SMILES: Cc1ccc(OC/C(O)=C(\C#N)c2nc3ccccc3s2)cc1
- CC50 [5]: > 40 µM (active)
- AC50 [6]: 6.14 µM (active)

SMILES: CCOc1ccc(NC(=O)CSc2nnc[nH]2)c([N+](=O)[O-])c1
- IC50 (Leucine aminopeptidase): 5.46 µM (active)

SMILES: CC(=O)c1ccc(N2CCC(c3cc(-c4ccc(Cl)cc4Cl)[nH]n3)CC2)c([N+](=O)[O-])c1
- EC50 [7]: 1.24 µM (active)
- EC50 [8]: 4.36 µM (active)
- CC50 [5]: 29.2 µM (active)
- EC50 [9]: > 60 µM (inconclusive)
- EC50 (Streptococcus): 8.12 µM (active)
- AC50 [6]: 2.19 µM (active)

SMILES: O=C(NCC(=O)N1CCCC1C(=O)O)OC1CCCCC1 (stereo not drawn)
- IC50 (Leucine aminopeptidase): 39 µM (active)

SMILES: O=C1C(O)=C(C2CCC(c3ccc(Cl)cc3)CC2)C(=O)c2ccccc21 (stereo not drawn)
- AC50 (Cytochrome P450 1A2): 10 µM (inconclusive)
- CC50 [5]: 12.8 µM (active)

SMILES: Cc1nnc2oc(O)c(C)c(C)c1-2
- AC50 (Cytochrome P450 2C9): inconclusive

SMILES: O=C(c1cn[nH]c1)c1cc(F)ccc1O
- IC50 (Leucine aminopeptidase): 20.9 µM (active)

SMILES: Cc1ccc(S(=O)(=O)Nc2ccc3c(c2)C(=O)N([C@H](C)CO)C[C@@H](C)[C@H](CN(C)S(=O)(=O)c2ccc(Cl)cc2)OCCCC[C@H](C)O3)cc1
- AC50 (Paired box protein Pax-8): 8.13 µM (active)
- AC50 [10]: > 70 µM (inactive)

SMILES: Cc1cccc(NC(=O)c2cc(NC(=O)C3CCCCC3C(=O)O)ccc2N2CCCCC2)c1 (stereo not drawn)
- CC50 [11]: 15.7 µM (active)
- IC50 (Genome polyprotein): 37.7 µM (active)

SMILES: COc1ccc(C2(C(=O)Nc3ccc(S(=O)(=O)Nc4nc(C)cc(C)n4)cc3)CCCC2)cc1OC
- IC50 [2]: 12.3 µM (active)

SMILES: C#CCn1/c(=N/C(=O)c2ccc(S(=O)(=O)N3CCc4ccccc4C3)cc2)sc2cc(S(N)(=O)=O)ccc21
- AC50 [12]: 1.29 µM (active)
- AC50 [13]: 37.3 µM (active)
- AC50 (INS1): 2.68 µM (active)
- AC50 [14]: 23.9 µM (active)
- EC50 [15]: 1.31 µM (active)
- EC50 [16]: 1.62 µM (active)

SMILES: CC[C@]1(C(=O)OC)[C@H]2C(=O)N(Cc3ccccc3)C(=O)[C@H]2[C@H]2CN=C(SCc3ccc(Cl)cc3)N21
- AC50 (HEK293): 3.31 µM (active)

SMILES: O=C(c1ccoc1)N1CCN(c2cc(-c3cccc(F)c3)nc3cc(-c4cccc(Cl)c4)nn23)CC1
- AC50 [12]: 9.78 µM (active)
- AC50 [13]: > 70 µM (inactive)
- AC50 [14]: 12.9 µM (active)

SMILES: c1ccc(-c2cn3c(n2)CCc2ccc4cccnc4c2-3)cc1
- CC50 [5]: 22.1 µM (active)
- IC50 (H9c2): > 79 µM (inactive)
- IC50 [17]: > 80 µM (inactive)

SMILES: NCCSC[C@H](N)C(=O)O
- AC50 (Cytochrome P450 2C9): inconclusive
